From patent US20240114902A1, “COMPOSITIONS AND METHODS FOR DETERRING OVIPOSITION BY FRUIT FLIES” (The United States of America, as represented by The …, priority 2022, published 2024)

Experiments:
Type in all cases: in vivo
[1] = test system: Bactrocera dorsalis; assay: B. dorsalis spatial deterrence, two-choice traps baited with guava juice; details: tested individually
Method: In addition to CFA, a series of odd-numbered carbon fatty acids (C9:0 to C17:0) and fatty acid methyl esters were evaluated for the spatial deterrence to B. dorsalis that results in oviposition reduction. Table 3 below lists the fatty acid methyl esters tested for spatial repellency for Bactrocera dorsalis. […] FIG. 16A, FIG. 16C, FIG. 16E, FIG. 16G, FIG. 16I, FIG. 16K, FIG. 16M, FIG. 16O, FIG. 16Q, and FIG. 16S show the mean numbers (±SEM) of mated female B. dorsalis flies captured, and FIG. 16B, FIG. 16D, FIG. 16F, FIG. 16H, FIG. 16J, FIG. 16L, FIG. 16N, FIG. 16P, FIG. 16R, and FIG. 16T show the number of B. dorsalis eggs oviposited in traps baited with guava juice (control) and with guava juice plus one of the coconut fatty acid methyl ester compounds in two-choice bioassays. For each test, different letter on the bar indicate a significant difference by Tukey-Kramer tests at P<0.05, n=4.

[2] = test system: Bactrocera dorsalis (OFF); assay: OFF two-choice cage oviposition bioassay on guava juice-infused agar; parameters: key to Activity (OFF oviposition group): Negative: “OFF negative” (i.e., oviposition reduced); Neutral: “OFF neutral” (i.e., no effect on oviposition); Positive: “OFF positive” (i.e., oviposition increased); details: for effect on OFF oviposition vs control agar / OFF oviposition deterrence at lower dose: individual compound; for effect on OFF oviposition vs control agar / OFF oviposition increase vs control agar / OFF oviposition reduction vs control agar: 20 mg/agar; for Activity (OFF oviposition group): individual CFA component; for OFF oviposition increase vs control agar: ethanol control; for OFF oviposition reduction vs control agar: 3 days; for OFF oviposition deterrence at lower dose: 2 mg dose
Method: Evaluation of oviposition deterrence of CFA: OFF oviposition bioassays were conducted using laboratory two-choice cage experiments with guava juice-infused agar as an oviposition substrate. The agar plates were prepared by pouring 30 mL of boiled agar mixture [1000 mL distilled water, 500 mL guava juice (Deans Foods, El Paso, Texas, USA), 10 g agar, 0.6 g methylparaben, 6.7 mL 95% ethanol, and 3 mL acetic acid] into a 30 mL deli plastic cup to gel. The agar was then covered with a lid to avoid desiccation. The two-choice oviposition bioassay was conducted in screened cages using 20 mated OFF females per cage (12-18 day-old; Jang E B et al., 1997, “Attraction of female oriental fruit fly, Bactrocera dorsalis, to volatile semiochemicals from leaves and extracts of a non-host plant, Panax (Polyscias guilfoylei) in laboratory and olfactometer assays,” J. Chem. Ecol. 23:1389-1401) over 3 days. Each cage was provided with a ball of water-saturated cotton, sugar, and protein hydrolysate in separate 30 mL deli cups and two guava juice agar plates-one treated with CFA diluted in hexane and the other treated with the hexane control. The agar plates were surface-treated either with 200 μL of hexane or 200 μL of CFA in one of 4 doses tested (20, 2, 0.2, and 0.02 mg/200 μL of hexane), placed into a fume hood for 10 minutes prior to use in bioassays, and positioned upside-down (i.e., treated side down) on the center of the outside top of the screened cage 17 cm apart from each other (i.e., one each of control and CFA treated), allowing female flies to oviposit on guava juice agar from the bottom through the cage screen. After three days, OFF eggs in the guava agar were gently separated from the agar in water and the number of eggs were individually counted (up to 100 eggs) or estimated volumetrically at 1 mL OFF eggs=20,000 eggs (Stephanie Gayle personal communication). The experiment was replicated six times per treatment. Determination of bioactive oviposition deterrent components from CFA: A series of bioassays was conducted to identify key deterrent components of CFA for OFF using the same two-choice bioassay design described above. […] Ethanol was used as control and for preparing dilutions of C16:0 and C18:0. Hexane was used as control and for dilutions of the other six compounds tested. Based on the outcome of these bioassays, the eight free fatty acid components were assigned to “OFF negative” (i.e., oviposition reduced), “OFF neutral” (i.e., no effect on oviposition), and “OFF positive” (i.e., oviposition increased) compound groups. Using these groupings, four different blends were formulated (indicated in Table 1), composed at the equivalent ratios and concentrations of each component found in CFA (Zhu J J et al., 2018, supra), to determine key bioactive CFA components in terms of oviposition deterrence on OFF. The approach involved testing the bioactivity of the OFF negative-component blend (4c blend) for oviposition deterrence at three different doses (2, 0.2, and 0.02 mg CFA equivalent/agar), first comparing with hexane control, then with CFA at respective equivalent doses. As the 4c blend was not as effective as CFA, a “OFF negative+OFF neutral” component blend (6c blend) was then formulated, and its effect compared with CFA at 2 and 0.2 mg CFA equivalent/agar. Two subtraction blends with one of the two OFF neutral components removed from the 6c blend (5c-i and 5c-ii blends) were formulated and compared with the 6c blend at 2 and 0.2 mg CFA equivalent/agar. The experiment was replicated four to six times per treatment.

[3] = test system: Drosophila suzukii (SWD); assay: SWD laboratory two-choice oviposition bioassay on raspberries; parameters: key to Behavioral activity (SWD oviposition group): Negative: “SWD negative” compounds (i.e., SWD oviposition was reduced); Neutral: “SWD neutral” compounds (i.e., no effect on oviposition); details: two-choice; for Behavioral activity (SWD oviposition group): individual CFA component; for effect on SWD oviposition vs control: individual compound, 20 mg dose
Method: Laboratory choice test 1 Oviposition bioassays were conducted at USDA-ARS in Hilo, Hawaii using a laboratory two-choice cage experimental set-up with organic raspberries purchased from a local grocery as an oviposition substrate. For all laboratory assays listed below, the receptacles of the raspberries were stuffed with cotton to prevent flies from ovipositing on the interior of the fruit as described previously in Cha D H et al. (2021, supra). The two-choice oviposition bioassay was conducted over 24 hours in screened cages (30 cm W×30 cm L×30 cm H; BugDorm-2120 Insect tent; shop.bugdorm.com) with 30 female and 10 male SWD (7-8 days old) released per cage. Each cage was provided with cotton moistened with water in a 20 mL deli cup and two 30 mL deli cups; one with two raspberries treated with CFA diluted in hexane and the other with two raspberries treated with hexane only. Each raspberry was surface-treated either with 200 μL of hexane or 200 μL of CFA in one of three doses (20, 2, or 0.2 mg CFA/200 μL hexane), placed into a fume hood for 10 minutes or until used in the bioassay. The deli cups with the treated berries were positioned in the center of the floor of the screened cage, 17 cm apart from each other. Female flies were allowed to oviposit on the surface of raspberries for 24 hours. At the conclusion of the bioassay, each 30 mL deli cup containing two raspberries was moved into a 600 mL deli cup with a mesh cap, held for 8 days (22.1±1.9° C., 71.7±3.1% RH, 16:8 L:D), when the number of larvae and pupae were counted. The experiment was replicated four times per treatment. Laboratory choice test 2 A series of bioassays were conducted in Hilo, Hawaii to identify key bioactive deterrent components of CFA for SWD using the same two-choice bioassay described above. […] Due to solubility differences, ethanol was used as control and for dilution of C16:0 and C18:0, while hexane was used as control and for dilution of the other six compounds tested. Based on the outcome of these bioassays, the eight free fatty acid components of CFA were grouped into two groups; “SWD negative” compounds (i.e., SWD oviposition was reduced) and “SWD neutral” compounds (i.e., no effect on oviposition), and tested whether the blend of “SWD negative” compounds had the same oviposition deterrence as the CFA at their equivalent concentrations as in CFA (see Table 2). The oviposition deterrence of the blend of “SWD negative” compounds was first compared to hexane at three different doses (20, 2 and 0.2 mg CFA equivalent/raspberry) and subsequently compared to CFA at 2 mg equivalent dose.

[4] = test system: Zeugodacus cucurbitae; assay: Z. cucurbitae two-choice oviposition bioassay on pumpkin juice-infused agar; parameters: key to Behavioral activity (Z. cucurbitae oviposition group): Negative: “negative” (i.e., oviposition reduced); Neutral: “neutral” (i.e., no effect on oviposition); Positive: “positive” (i.e., oviposition increased); details: for Z. cucurbitae oviposition increase vs ethanol control agar: 24 hours; for Behavioral activity (Z. cucurbitae oviposition group): individual CFFA component; for Z. cucurbitae oviposition reduction vs control agar: individual compound
Method: Oviposition bioassays were conducted with mated female flies, using pumpkin juice-infused agar as an oviposition substrate. A small petri dish (60×15 mm) filled with 10 mL of 1% agar mixed in pumpkin juice was used as an oviposition substrate. The agar plates were surface-treated either with 200 μL of ethanol or 200 μL of CFFA in one of 4 doses tested (20, 2, 0.2, and 0.02 mg/200 μL of ethanol), placed into a fume hood for 10 minutes for solvent evaporation prior to use in bioassays, and positioned upside-down (i.e. treated side down) on top of the 30×30×30 cm (W×L×H) screened cage 17 cm apart from each other (i.e. one each of control and CFFA treated), allowing 20 female flies (14 to 18 day-old) to oviposit on pumpkin juice agar from the bottom through the cage screen for 24 hours. Each cage was provided with a ball of water-saturated cotton, sugar, and protein hydrolysate in separate 30 mL deli cups and two oviposition substrates-one treated with CFFA diluted in ethanol and the other treated with the ethanol control. After 24 hours, Z. cucurbitae eggs in the pumpkin agar were gently separated from the agar in water and the number of eggs were individually counted. The experiment was replicated five times per treatment. CFFA was not an effective oviposition deterrent for Z. cucurbitae which is contrary to our previous work on B. dorsalis (Roh et al., 2023a). […] CFFA components were categorized into three groups “negative” (i.e., oviposition reduced), “neutral” (i.e., no effect on oviposition), and “positive” (i.e., oviposition increased) based on bioassay outcome. Using these categories, further formulations were made to determine key bioactive CFFA components in terms of oviposition deterrence on Z. cucurbitae at the equivalent ratios and concentrations of each component found in CFFA (Zhu et al. 2018). The approach involved testing the bioactivity of the negative-component blend (4c blend) for oviposition deterrence at three different doses (2, 0.2, and 0.02 mg CFFA equivalent/agar), compared with ethanol control. Further, neutral compound is added to the negative blend i.e., ‘negative+neutral’ component blend (5c blend) to identify key compounds for oviposition deterrence. The experiment was replicated five times per treatment.

Compound | effect on female B. dorsalis attraction and oviposition to host fruit odors [1] | effect on OFF oviposition vs control agar [2] | Activity (OFF oviposition group) [2] | Behavioral activity (SWD oviposition group) [3] | effect on SWD oviposition vs control [3] | Z. cucurbitae oviposition increase vs ethanol control agar ([4]; 20 mg dose) | Behavioral activity (Z. cucurbitae oviposition group) [4] | OFF oviposition increase vs control agar [2] | effect on Z. cucurbitae oviposition ([4]; 20 mg dose) | OFF oviposition reduction vs control agar [2] | OFF oviposition deterrence at lower dose [2] | effect on Z. cucurbitae oviposition ([4]; 2 mg dose) | Z. cucurbitae oviposition reduction vs control agar ([4]; 20 mg dose)
CCCCCCCCC(=O)OC [C9:0 ME, Methyl pelargonate] | significantly reduced | – | – | – | – | – | – | – | – | – | – | – | –
CCCCCCCCCCC(=O)O [C11:0, Undecylic acid] | – | significantly reduced | – | – | – | – | – | – | – | – | – | – | –
CCCCCCCCCCCC(=O)O [C12:0, lauric acid] | – | did not affect OFF oviposition | Neutral | Neutral | did not increase or decrease SWD oviposition | 86.4% | Positive | – | – | – | – | – | –
CCCCCCCCCCCCCC(=O)O [C14:0, myristic acid] | – | did not affect OFF oviposition | Neutral | Neutral | did not increase or decrease SWD oviposition | 77.7% | Positive | – | – | – | – | – | –
CCCCCCCCCCCCCCCC(=O)O [C16:0, palmitic acid] | – | – | Positive | Neutral | did not increase or decrease SWD oviposition | 67.3% | Positive | 60% | – | – | – | – | –
CCCCCCCCCCCCCCCCCC(=O)O [C18:0, stearic acid] | – | – | Positive | Neutral | did not increase or decrease SWD oviposition | – | Neutral | 29% | did not affect oviposition | – | – | – | –
CCCCCCCC/C=C\CCCCCCCC(=O)O [C18:1, oleic acid] | – | – | Negative | Neutral | did not increase or decrease SWD oviposition | – | Negative | – | – | 100% | maintained OFF oviposition deterrence | either lost oviposition deterrence or increased oviposition | 98.1%
CCCCC/C=C\C/C=C\CCCCCCCC(=O)O [C18:2, linoleic acid] | – | – | Negative | Neutral | did not increase or decrease SWD oviposition | – | Negative | – | – | 99% | maintained OFF oviposition deterrence | either lost oviposition deterrence or increased oviposition | 96.4%
